Laboratory results published in US20230348978A1, “TREATMENT OF ALZHEIMER'S DISEASE” (SELONTERRA, INC., priority 2020, published 2023).

Test system: E4E4 neurons
Assay: qPCR gene expression in E4E4 neurons treated with GPR4 agonist
Format: cell-based, human
Conditions: six hours, vs E4E4 vehicle-treated neurons
Description: Example 1: Cultivation of human isogenic neurons carrying either the homozygous APOE4 genotype (E4E4) or the homozygous APOE3 genotype (E3E3). Commercially available human isogenic neurons were acquired from Fujifilm Cellular Dynamics Inc. The homozygous APOE4 genotype (E4E4) neurons were designated DDP-NRC-1× 01434.779 and herein they are referred to as E4E4 neurons. The homozygous APOE3 genotype (E3E3) neurons were designated R1013 and herein they are referred to as E3E3 neurons. The neurons were plated and cultivated in 96-well plates. Prior to plating of neurons, the manufacturer supplied complete maintenance medium was prepared and stored at 4 degrees Celsius. The 96-well plates were double coated with poly-L-ornithin (PLO Sigma; P4957) and laminin (Sigma; L2020) by first coating the wells with poly-L-ornithin overnight at 4 degrees Celsius. Wells were rinsed with phosphate-buffered saline and then laminin diluted in phosphate-buffered saline at a concentration of 10 micrograms/milliliter was added for three hours. Complete maintenance medium was equilibrated to room temperature. Neurons were thawed for three minutes in a 37 degrees Celsius water bath. The content of the vial was transferred to a 50 ml conical tube by adding one milliliter of room-temperature equilibrated complete maintenance medium and suspending the neurons. The neuron suspension was transferred to the 50 ml conical tube. This neuron suspension was further diluted by addition of eight milliliter of complete maintenance medium. A viable neuron count was performed and the neurons were plated into individual wells of a 96-well plate at a neuronal seed density of 125,000 neurons per cm^2. The E3E3 and the E4E4 containing 96-well plates were transferred into a cell incubator and incubated at 37 degrees Celsius and 5% CO2. E3E3 and E4E4 neurons plated in this way were allowed to attach to the wells of the 96-well plate for 24 hours at which time a 100% medium change to fresh complete maintenance medium was performed. The E3E3 and E4E4 neurons were then continued to be cultivated at 37 degrees Celsius and 5% CO2. On Day 5 after plating a 50% medium change was performed by removal of 50% of the cell supernatant and addition of the same volume of fresh complete maintenance medium and then the 96-well plates were continued to be cultivated at 37 degrees Celsius and 5% CO2. On Day 9 after plating, a 50% medium change was performed by removal of 50% of the cell supernatant and addition of the same volume of fresh complete maintenance medium. This medium change was performed before neurons were treated with compounds on Day 9 after plating.
Example 2: Treatment of E4E4 neurons with the exemplary GPR4 agonist SLC2004 and vehicle and E3E3 neurons with vehicle. E4E4 and E3E3 neurons were plated and cultivated in individual wells of a 96-well plate as described in Example 1. The compound spingosylphosphorylcholine (SLC2004) (Sigma; S4257) is a lyophilized powder with a white to yellow appearance and a molecular weight of 464.62 Dalton. A fresh stock solution of SLC2004 was prepared in methanol as vehicle at a stock concentration of 300 millimolar. This stock solution was further diluted to yield two 21-fold concentrated solutions of the intended in-well concentrations. For one of the 21-fold concentrated SLC2004 solution, a final SLC2004 in-well concentration of 3 micromolar was achieved by adding 10 microliters of this 21-fold concentrated SLC2004 solution to 200 microliters of complete maintenance medium in each well of the 96-well plate. For the second 21-fold concentrated SLC2004 solution, a final SLC2004 in-well concentration of 10 micromolar was achieved by adding 10 microliters of this 21-fold concentrated SLC2004 solution to 200 microliters of complete maintenance medium in each well of the 96-well plate. All wells with SLC2004-treated neurons contained the same amount of 0.01% methanol in complete maintenance medium. […]

CCCCCCCCCCCCC/C=C/[C@@H](O)[C@@H](N)COP(=O)([O-])OCC[N+](C)(C)C [SLC2004, sphingosylphosphorylcholine]
expression of CCND3 (3 micromolar): upregulated | expression of ITGB3 (3 micromolar): downregulated | expression of VCL (3 micromolar): upregulated | expression of BDNF (10 micromolar): upregulated | expression of CTGF (10 micromolar): upregulated | expression of YAP1 (10 micromolar): upregulated
